Measured values from patent publication US7919488B2, “Therapeutic compounds” (Pfizer Inc., priority 2006, dated 2011).

Tests used:
Format in all cases: biochemical
[1] = target: T1, recombinant CYP3A4-b5 enzyme (Baculosomes®) (Homo sapiens, UniProt P08684); experiment: Kiapp against recombinant CYP3A4 enzyme (Baculosomes), BFC substrate; conditions: recombinant CYP3A4-b5 (Invitrogen), 5 uM BFC, 200 uM NADPH, pre-incubation at least 30 minutes, pH 7.0, room temperature
T1 construct: purchased Invitrogen (Carlsbad, Calif.)
How it was run: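 Recombinant CYP3A4-b5 Baculosomes were run in 100 mM sodium phosphate pH 7.0 with 5 mM TCEP and 2% DMF at room temperature, with ~30 min pre-incubation. The reaction was started with NADPH (200 uM) and BFC (5 uM), both final. Kiapp came from initial fluorescence velocities over the first 5 min across inhibitor concentrations.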

[2] = target: T2, CYP3A4 (Homo sapiens, UniProt P08684); experiment: IC50 against CYP3A4 by inhibition of midazolam metabolism in human liver microsomes; conditions: 0.1 mg/mL human liver microsomes, 2 μM midazolam, 1 mM NADPH, 1-hydroxymidazolam production, eight minutes; read-out: IC50, μM (HLM, midazolam)
T2 construct: 0.1 mg/mL human liver microsomes; from tissue; host or cells: human liver microsomes
How it was run: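 Human liver microsomes (0.1 mg/mL) incubated 8 min with 2 μM midazolam and 1 mM NADPH in 100 mM potassium phosphate, pH 7.4. 1-Hydroxymidazolam quantified by LC-MS/MS (MRM) as peak area ratio to internal standard against a metabolite standard curve.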

[3] = target: T2, CYP3A4; experiment: IC50 against CYP3A4 by inhibition of testosterone metabolism in human liver microsomes; conditions: 0.1 mg/mL human liver microsomes, 25 μM testosterone, 1 mM NADPH, 6-β-OH-testosterone production, eight minutes; read-out: IC50, μM (HLM, testosterone)
How it was run: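 Testosterone used as substrate, incubated for eight minutes. 6-β-OH-testosterone formation quantified by LC-MS/MS (MRM) as peak area ratio to internal standard against a metabolite standard curve. IC50 derived from inhibition of this metabolism.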

[4] = target: T3, recombinant CYP3A4+b5 enzyme (Supersomes®) (Homo sapiens, UniProt P08684); experiment: Kiapp against recombinant CYP3A4 enzyme (Supersomes), BFC substrate; conditions: recombinant CYP3A4+b5 (BD Biosciences), 5 uM BFC, 200 uM NADPH, pre-incubation at least 30 minutes, pH 7.0, room temperature
T3 construct: purchased BD Biosciences (Woburn, Mass.)
Experimental: 1. Determination of Compound Kiapp
A determination of the Kiapp of the compounds of the invention against recombinant CYP3A4 enzyme was performed as follows. The assay was performed in a 100 mM sodium phosphate buffer pH 7.0, 5 mM TCEP and containing 2% dimethylformamide (final concentration) upon addition of substrate and inhibitor. A typical reaction for the determination of Kiapp values was carried at room temperature in a solid black Costar u-bottom 96-well polypropylene plate. In each well, recombinant CYP3A4 enzyme (5.5 nM or 8 nM, final concentration depending on the commercial source of the enzyme) was pre-incubated in the presence of the inhibitor for at least 30 minutes in the assay buffer. When pre-incubation was completed (˜30 min), the reaction was initiated by adding NADPH (200 uM, final concentration), and 7-benzyloxy-4-(trifluoromethyl)-coumarin (BFC) (5 uM, final concentration). The oxidation of the coumarin substrate was recorded by a 96-well plate reader POLARstar (BMG LABTECH, Offenburg, Germany).
The initial reaction velocities were measured during the first 5 min of the reaction when the release of the fluorescent product is linear with time, in the absence and in the presence of various concentrations of inhibitors. For non-partial & partial inhibitors, the Kiapp values were determined by using the equation for tight-binding inhibitor developed by Morrison, J F (Morrison J F. Biochim Biophys Acta. 1969, 185: 269-86) and by Szedlaseck S E et al. (Szedlascek, S. E., Ostafe, V., Serban, M., and Vlad, M. O. Biochem. J. 1988, 254:311-312), respectively.
The fluorescent substrate BFC was purchased from Sigma (St Louis, Mo.). Two commercial sources of recombinant enzymes were used in this study: recombinant CYP3A4-b5 enzyme (Baculosomes®) was purchased from Invitrogen (Carlsbad, Calif.) and the recombinant CYP3A4+b5 enzyme (Supersomes®) was purchased from BD Biosciences (Woburn, Mass.).

T3 sequence (P08684 2-503 limits assumed): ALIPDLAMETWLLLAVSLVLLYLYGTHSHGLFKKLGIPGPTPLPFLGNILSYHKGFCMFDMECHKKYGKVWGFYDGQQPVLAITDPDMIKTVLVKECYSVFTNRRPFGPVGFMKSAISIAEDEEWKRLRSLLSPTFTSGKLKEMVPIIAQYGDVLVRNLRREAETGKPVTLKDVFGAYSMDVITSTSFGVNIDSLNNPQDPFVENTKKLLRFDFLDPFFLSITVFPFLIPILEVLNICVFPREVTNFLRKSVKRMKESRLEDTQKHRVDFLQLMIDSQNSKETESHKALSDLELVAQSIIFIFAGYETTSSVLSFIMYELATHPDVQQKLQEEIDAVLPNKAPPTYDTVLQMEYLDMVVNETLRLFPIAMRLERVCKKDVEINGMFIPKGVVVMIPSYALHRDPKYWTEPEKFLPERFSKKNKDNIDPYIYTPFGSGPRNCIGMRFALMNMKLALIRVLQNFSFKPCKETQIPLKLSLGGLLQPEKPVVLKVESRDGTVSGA
T1 sequence (P08684 whole entry): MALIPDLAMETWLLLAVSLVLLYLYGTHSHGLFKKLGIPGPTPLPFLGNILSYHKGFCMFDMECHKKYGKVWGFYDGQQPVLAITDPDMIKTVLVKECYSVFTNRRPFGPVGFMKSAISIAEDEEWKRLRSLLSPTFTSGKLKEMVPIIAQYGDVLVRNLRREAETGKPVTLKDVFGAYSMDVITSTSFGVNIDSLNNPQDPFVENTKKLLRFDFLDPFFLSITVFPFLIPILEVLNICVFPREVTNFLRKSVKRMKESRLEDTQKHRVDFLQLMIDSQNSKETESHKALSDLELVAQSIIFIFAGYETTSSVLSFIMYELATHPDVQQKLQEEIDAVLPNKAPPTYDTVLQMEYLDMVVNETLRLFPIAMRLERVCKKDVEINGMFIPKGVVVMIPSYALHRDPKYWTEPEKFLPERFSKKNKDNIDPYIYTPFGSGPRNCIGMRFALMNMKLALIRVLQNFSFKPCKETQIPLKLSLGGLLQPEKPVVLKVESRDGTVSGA
T2 sequence (P08684 whole entry): as above

Compound | Ki [1] | IC50 [2] | IC50 [3] | Ki [4]
CS(=O)(=O)NC1CCN(C(=O)Cn2nc(-c3c[nH]cn3)cc2Cc2ccc(F)cc2)CC1 [Example 119, N-(1-{2-[5-(4-fluorobenzyl)-3-(1H-imidazol-4-yl)-1H-pyrazol-1-yl]acetyl}piperidin-4-yl)methanesulfonamide] | 0.314 µM | 0.167 µM | > 0.75 µM | 0.166 µM
O=C(Cn1nc(-c2ccncc2)cc1Cc1ccc(F)cc1)N1CCC(N2CCCS2(=O)=O)CC1 [Example 120, 4-[1-{2-[4-(1,1-dioxidoisothiazolidin-2-yl)piperidin-1-yl]-2-oxoethyl}-5-(4-fluorobenzyl)-1H-pyrazol-3-yl]pyridine] | 0.003 µM | 0.017 µM | 0.027 µM | 0.0068 µM
O=C(Cn1nc(-c2ccncc2)cc1Cc1ccc(F)cc1)N1CC(N2CCOCC2)C1 [Example 121, 4-(1-{[5-(4-fluorobenzyl)-3-pyridin-4-yl-1H-pyrazol-1-yl]acetyl}azetidin-3-yl)morpholine] | 0.0978 µM | 0.045 µM | 0.088 µM | 0.0136 µM
CN(C(=O)Cn1nc(-c2c[nH]cn2)cc1Cc1ccc(F)cc1)[C@H]1CC[C@H](O)CC1 [Example 123, 2-[5-(4-fluorobenzyl)-3-(1H-imidazol-4-yl)-1H-pyrazol-1-yl]-N-(trans-4-hydroxycyclohexyl)-N-methylacetamide] | 0.459 µM | 0.397 µM | 0.554 µM | 0.167 µM
COC(=O)NC1CN(C(=O)Cn2nc(-c3ccncc3)cc2Cc2ccc(F)cc2)C1 [Example 124, methyl (1-{[5-(4-fluorobenzyl)-3-pyridin-4-yl-1H-pyrazol-1-yl]acetyl}azetidin-3-yl)carbamate] | 0.123 µM | 0.025 µM | 0.032 µM | 0.0147 µM
CS(=O)(=O)NC1CN(C(=O)Cn2nc(-c3ccncc3)cc2Cc2ccc(F)cc2)C1 [Example 125, N-(1-{2-[5-(4-fluorobenzyl)-3-pyridin-4-yl-1H-pyrazol-1-yl]acetyl}azetidin-3-yl)methanesulfonamide] | 0.0666 µM | 0.022 µM | 0.027 µM | 0.00884 µM
CC(=O)NC1CN(C(=O)Cn2nc(-c3ccncc3)cc2Cc2ccc(F)cc2)C1 [Example 127, N-(1-{2-[5-(4-fluorobenzyl)-3-pyridin-4-yl-1H-pyrazol-1-yl]acetyl}azetidin-3-yl)acetamide] | 0.141 µM | 0.041 µM | 0.08 µM | 0.0191 µM
CNC(=O)N(C)C1CCN(C(=O)Cn2nc(-c3ccncc3)cc2Cc2ccc(F)cc2)C1 (stereo not shown) [Example 129, 1-(1-{[5-(4-fluorobenzyl)-3-pyridin-4-yl-1H-pyrazol-1-yl]acetyl}pyrrolidin-3-yl)-1,3-dimethylurea] | 0.312 µM | 0.022 µM | 0.066 µM | 0.017 µM
CS(=O)(=O)CCN1CCN(C(=O)Cn2nc(-c3ccncc3)cc2Cc2ccc(F)cc2)CC1 [Example 131, 1-{[5-(4-fluorobenzyl)-3-pyridin-4-yl-1H-pyrazol-1-yl]acetyl}-4-[2-(methylsulfonyl)ethyl] piperazine] | 0.0111 µM | 0.0139 µM | 0.037 µM | 0.00283 µM
CS(=O)(=O)C1CCN(C(=O)Cn2nc(-c3ccncc3)cc2Cc2ccc(F)cc2)C1 (stereo not shown) [Example 132, 4-[5-(4-fluorobenzyl)-1-{2-[3-(methylsulfonyl)-pyrrolidin-1-yl]-2-oxoethyl}-1H-pyrazol-3-yl]pyridine] | 0.0996 µM | 0.023 µM | 0.04 µM | 0.0716 µM
CN(C(=O)Cn1nc(-c2ccncc2)cc1Cc1ccc(F)cc1)[C@H]1CC[C@@H](O)CC1 [Example 135, 2-[5-(4-fluorobenzyl)-3-pyridin-4-yl-1H-pyrazol-1-yl]-N-(cis-4-hydroxycyclohexyl)-N-methylacetamide] | 0.108 µM | 0.00867 µM | 0.021 µM | 0.0358 µM

The next lines start with the values.

Ki [1] | IC50 [2] | IC50 [3] | Ki [4] | Compound
0.482 µM | 0.62 µM | > 0.75 µM | 0.178 µM | CC(=O)N(C)C1CCN(C(=O)Cn2nc(-c3c[nH]cn3)cc2Cc2ccc(F)cc2)CC1 [Example 122, N-(1-{[5-(4-fluorobenzyl)-3-(1H-imidazol-4-yl)-1H-pyrazol-1-yl]acetyl}piperidin-4-yl)-N-methylacetamide]
0.196 µM | 0.034 µM | 0.059 µM | 0.031 µM | CNC(=O)NC1CN(C(=O)Cn2nc(-c3ccncc3)cc2Cc2ccc(F)cc2)C1 [Example 126, 1-(1-{[5-(4-fluorobenzyl)-3-pyridin-4-yl-1H-pyrazol-1-yl]acetyl}azetidin-3-yl)-3-methylurea]
0.0488 µM | 0.022 µM | 0.026 µM | 0.00507 µM | COC(=O)N(C)C1CCN(C(=O)Cn2nc(-c3ccncc3)cc2Cc2ccc(F)cc2)C1 (stereo not shown) [Example 128, methyl (1-{[5-(4-fluorobenzyl)-3-pyridin-4-yl-1H-pyrazol-1-yl]acetyl}pyrrolidin-3-yl)methylcarbamate]
0.0276 µM | 0.015 µM | 0.032 µM | 0.00618 µM | COC(=O)N[C@H]1CCN(C(=O)Cn2nc(-c3ccncc3)cc2Cc2ccc(F)cc2)C1 [Example 130, methyl [(3S)-1-{[5-(4-fluorobenzyl)-3-pyridin-4-yl-1H-pyrazol-1-yl]acetyl}pyrrolidin-3-yl]carbamate]
0.21 µM | 0.083 µM | 0.044 µM | 0.174 µM | CC(C)(CN1CCOCC1)NC(=O)Cn1nc(-c2ccnnc2)cc1Cc1ccc(F)cc1 [Example 133, N-(1,1-dimethyl-2-morpholin-4-ylethyl)-2-[5-(4-fluorobenzyl)-3-pyridazin-4-yl-1H-pyrazol-1-yl]acetamide]
0.131 µM | 0.0169 µM | 0.051 µM | 0.0168 µM | CC(=O)N1CCN(C(=O)Cn2nc(-c3ccncc3)cc2Cc2ccc(F)cc2)CC1 [Example 134, 1-acetyl-4-{[5-(4-fluorobenzyl)-3-pyridin-4-yl-1H-pyrazol-1-yl]acetyl}piperazine]
0.0291 µM | < 0.00833 µM | 0.023 µM | 0.0119 µM | O=C(Cn1nc(-c2ccncc2)cc1Cc1ccc(F)cc1)N1CCC(N2CCCCC2=O)CC1 [Example 136, 1′-{[5-(4-fluorobenzyl)-3-pyridin-4-yl-1H-pyrazol-1-yl]acetyl}-1,4′-bipiperidin-2-one]
0.0129 µM | 0.0101 µM | 0.031 µM | 0.0036 µM | O=C(Cn1nc(-c2ccncc2)cc1Cc1ccc(F)cc1)N1CCC(N2CCOCC2)CC1 [Example 137, 4-(1-{[5-(4-fluorobenzyl)-3-pyridin-4-yl-1H-pyrazol-1-yl]acetyl}piperidin-4-yl)morpholine]
